Measurements as given in patent publication US20250163072A1, “MACROCYCLIC COMPOUNDS FOR THE TREATMENT OF CANCER” (Hoffmann-La Roche Inc., priority 2021, published 2025).

How the values were obtained:
[1] = GSH reaction rates (inherent GSH reactivity); format: in vitro ADME
Protocol: Therefore Strategy to minimize the GSH metabolism is very critical. Short T1/2 in inherent GSH reaction indicated high GSH reaction rate. Thus T1/2 in inherent GSH reaction assay was determined for the screening of candidates. Reference compounds and compounds of this invention potentially could form conjugation with GSH either through halogenated moieties substitution reaction or direct Michael addition reaction. This test was therefore performed to check GSH reactivity of listed compounds. For inherent GSH reactivity determination, compounds at 1 μM were incubated at 37° C. with and without 5 mM GSH for 0, 0.5, 1, 2, 4 and 6 h in 100 mM potassium phosphate buffer at pH 7.4. At the end of the designated time points, samples were quenched with acetonitrile containing 10 mM N-ethylmaleimide and an internal standard. Quenched samples were centrifuged, and supernatants were analyzed by LC-MS/MS for compound quantification.

[2] = tested on: KRAS G12C in NCI-H358 cells; assay: pERK inhibition assay, NCI-H358; format: cell-based, human; conditions: Homo sapiens, 4 hours incubation
Protocol: (§1) This assay is to measure the ability of test compounds in inhibiting the phosphorylation of ERK, the downstream signaling of KRAS G12C in NCI-H358 cells, KRAS G12D in AGS cells, and KRAS G12V in SW620. NCI-H358 (ATCC-CRL5807) cells, AGS (ATCC-CRL-1739) cells, SW620 (ATCC-CCL-227) cells were all grown and maintained using RPMI-1640 medium (Thermo Fisher Scientific) with 10% fetal bovine serum and 1% penicillin/streptomycin. On the day prior to compound addition, cells were plated in tissue culture-treated 96 well plates (Corning-3699) at a density of 30,000 cell/well, 20,000 cell/well, 30,000 cell/well for NCI-H358, AGS and SW620 respectively, and allowed for attachment overnight. Diluted compounds were then added in a final concentration of 0.5% DMSO. After 4 hours of incubation, the medium was removed, 100 μL of 4% formaldehyde was added, and the assay plates were incubated at room temperature for 20 minutes. The plates were then washed once with phosphate buffered saline (PBS), and permeabilized with 100 μL of chilled methanol for 10 minutes. Non-specific antibody binding to the plates was blocked using 50 μL 1×BSA blocking buffer (Thermo-37520, 10-fold dilution by Phosphate-Buffered Saline Tween (PBST) for at least 1 hour at room temperature. The amount of phosphor-ERK was determined using an antibody specific for phosphorylated form of ERK. Primary antibody (pERK, CST-4370, Cell Signaling Technology) was diluted 1:300 in blocking buffer, with 50 μL aliquoted to each well, and incubated overnight at 4° C. Cells were washed five times for 5 minutes with PBST. Secondary antibody (HRP-linked anti-rabbit IgG, CST-7074, Cell Signaling Technology) was diluted 1:1000 in blocking buffer, and 50 μL was added to each well and incubated 1-2 hours at room temperature. Cells were washed 5 times for 5 minutes with PBST, 100 μL TMB ELISA substrate (abcam-ab171523) were added and gently shake for 20 minutes. 50 μL stop solution (abcam-ab171529) were added, and then read the signal (OD450) by EnVision. IC50 was determined by fitting a 4-parameter sigmoidal concentration response model.

KRAS G12D in AGS cells = assay: pERK inhibition assay, AGS; format: cell-based, human; conditions: Homo sapiens, 4 hours incubation
Protocol: as §1

KRAS G12V in SW620 = assay: pERK inhibition assay, SW620; format: cell-based, human; conditions: Homo sapiens, SW-620, SW620 cells, 4 hours incubation
Protocol: as §1

NCI-H358 cells = assay: Cell viability assay, NCI-H358; format: cell-based, human; conditions: Homo sapiens, NCI-H358, 72 hours, Cell Counting Kit-8, read-out: G12C IC50
Protocol: (§2) The purpose of this cellular assay was to determine the effects of test compounds on the proliferation of human cancer cell lines NCI-H358 (ATCC-CRL5807) cells, AGS (ATCC-CRL-1739) cells, SW620 (ATCC-CCL-227) over a 3-day treatment period by quantifying the amount of NADPH present at endpoint using Cell Counting Kit-8. Cells were seeded at 5,000 cells/well (NCI-H358), 2,000 cells/well (AGS) 2,000 cells/well (SW620) in 96-well assay plates (Corning-3699) and incubated overnight. On the day of the assay, diluted compounds were then added in a final concentration of 0.5% DMSO. After 72 hours incubation, a tenth of the volume of cell counting kit 8(Dnjindo-CK04) was added into each well. Read the signal (OD450 minus OD650) using EnVision after 2 hours incubation. IC50 was determined by fitting a 4-parameter sigmoidal concentration response model.

AGS cells = assay: Cell viability assay, AGS; format: cell-based, human; conditions: Homo sapiens, 72 hours, Cell Counting Kit-8, read-out: G12D IC50
Protocol: as §2

SW620 cells = assay: Cell viability assay, SW620; format: cell-based, human; conditions: Homo sapiens, SW-620, SW620, 72 hours, Cell Counting Kit-8, read-out: G12V IC50
Protocol: as §2

[3] = Human hepatocytes stability assay; format: in vitro ADME; conditions: for CL_hep (Human): 1 μM compound, human hepatocytes 1×10^6 cells/mL; for Clearance Category: human hepatocytes
Protocol: The hepatocyte stability assay measures the rate of disappearance of a compound from incubations with cryopreserved suspension hepatocytes from human. Positive controls, including Midazolam, Raloxifene and Dextromethorphan, are included in every experiment. Incubations consist of 1 μM tested compound and suspension of human hepatocytes (1×10^6 cells/mL) in supplemented Williams' E Medium with […] and 0.5% Penicillin-streptomycin. The hepatocyte suspension was incubated with intermittent shaking 900 rpm at 37° C., in a 5% CO2 incubator. The reaction was stopped by adding methanol containing internal standard (2 μM Tolbutamide) at 2, 10, 20, 40, 60 and 120 minutes after compound addition, depletion of the parent compound was monitored by LC-MS/MS analysis.

Row | Remaining at 6 hr in GSH (%) ([1]; 6 h, 1 μM, pH 7.4) | IC50 [2] | IC50 (KRAS G12D in AGS cells) | IC50 (KRAS G12V in SW620) | IC50 (NCI-H358 cells) | IC50 (AGS cells) | IC50 (SW620 cells) | SMILES | CL_hep (Human) [3] | Clearance Category [3] | Remaining at 6 hr in GSH (%) ([1]; 1 μM compound, 5 mM GSH, 37° C., pH 7.4, 6 hr) | T1/2(hour) in GSH ([1]; 1 μM compound, 5 mM GSH, 37° C., potassium phosphate buffer pH 7.4)
1 | – | 63 nM | 529 nM | 106 nM | 142 nM | 1380 nM | 367 nM | C#CC1CN(C(=O)N(C)[C@H](C(=O)N[C@H]2Cc3cc(O)cc(c3)-c3ccc4c(c3)c(c(-c3cccnc3[C@H](C)OC)n4CC)CC(C)(C)COC(=O)[C@@H]3CCCN(N3)C2=O)C(C)C)C1 (atropisomer, axis not shown; (M)) [Example 14, N-[(1S)-1-[[(8S,14S)-22-ethyl-4-hydroxy-(21M)-21-[2-[(1S)-1-methoxyethyl]-3-pyridyl]-18,18-dimethyl-9,15-dioxo-16-oxa-10,22,28-triazapentacyclo[18.5.2.12,6.110,14.023,27]nonacosa-1(26),2,4,6(29),20,23(27),24-heptaen-8-yl]carbamoyl]-2-methyl-propyl]-3-ethynyl-N-methyl-azetidine-1-carboxamide] | – | – | – | –
2 | – | 8 nM | 105 nM | 26 nM | 77 nM | 226 nM | 57 nM | CCn1c(-c2cccnc2[C@H](C)OC)c2c3cc(ccc31)-c1cc(O)cc(c1)C[C@H](NC(=O)[C@H](C(C)C)N(C)C(=O)[C@H]1CCN(C(=O)C(C)=O)C1)C(=O)N1CCC[C@H](N1)C(=O)OCC(C)(C)C2 (atropisomer, axis not shown; (M)) [Example 5, (3S)-N-[(1S)-1-[[(8S,14S)-22-ethyl-4-hydroxy-(21M)-21-[2-[(1S)-1-methoxyethyl]-3-pyridyl]-18,18-dimethyl-9,15-dioxo-16-oxa-10,22,28-triazapentacyclo[18.5.2.12,6.110,14.023,27]nonacosa-1(26),2,4,6(29),20,23(27),24-heptaen-8-yl]carbamoyl]-2-methyl-propyl]-N-methyl-1-(2-oxopropanoyl)pyrrolidine-3-carboxamide] | – | – | – | –
3 | – | 8 nM | > 10000 nM | > 1000 nM | 4 nM | > 10000 nM | > 1000 nM | CCn1c(-c2cccnc2[C@H](C)OC)c2c3cc(ccc31)-c1cc(O)cc(c1)C[C@H](NC(=O)[C@H](C(C)C)N(C)C(=O)C1CCN(C(=O)C#CCN3CCOCC3)C1)C(=O)N1CCC[C@H](N1)C(=O)OCC(C)(C)C2 (stereo partly shown) [RM018, reference compound] | – | – | – | –

More lines, now with the values behind:

Row | SMILES | Remaining at 6 hr in GSH (%) ([1]; 6 h, 1 μM, pH 7.4) | IC50 [2] | IC50 (KRAS G12D in AGS cells) | IC50 (KRAS G12V in SW620) | IC50 (NCI-H358 cells) | IC50 (AGS cells) | IC50 (SW620 cells) | CL_hep (Human) [3] | Clearance Category [3] | Remaining at 6 hr in GSH (%) ([1]; 1 μM compound, 5 mM GSH, 37° C., pH 7.4, 6 hr) | T1/2(hour) in GSH ([1]; 1 μM compound, 5 mM GSH, 37° C., potassium phosphate buffer pH 7.4)
4 | CCn1c(-c2cccnc2COC)c2c3cc(ccc31)-c1cc(O)cc(c1)C[C@H](NC(=O)[C@H](C(C)C)N(C)C(=O)C1CN(C(=O)[C@H](F)Cl)C1)C(=O)N1CCC[C@H](N1)C(=O)OCC(C)(C)C2 [RM461-A] | 100% | 49 nM | > 10000 nM | 7020 nM | 45 nM | 7920 nM | 6880 nM | 5.5 mL/min/kg | low (CL_hep (mL/min/kg)<6.96 is low clearance) | – | –
5 | CO[C@@H](C)c1ncccc1-c1c2c3cc(ccc3n1CC(F)(F)F)-c1csc(n1)C[C@H](NC(=O)[C@H](C(C)C)N(C)C(=O)[C@H]1CCN(C(=O)[C@H](F)Cl)C1)C(=O)N1CCC[C@H](N1)C(=O)OCC(C)(C)C2 (atropisomer, axis not shown; (M)) [Example 22, (3S)-1-[(2R)-2-chloro-2-fluoro-acetyl]-N-[(1S)-1-[[(7S,13S)-(20M)-20-[2-[(1S)-1-methoxyethyl]-3-pyridyl]-17,17-dimethyl-8,14-dioxo-21-(2,2,2-trifluoroethyl)-15-oxa-4-thia-9,21,27,28-tetrazapentacyclo[17.5.2.12,5.19,13.022,26]octacosa-1(25),2,5(28),19,22(26),23-hexaen-7-yl]carbamoyl]-2-methyl-propyl]-N-methyl-pyrrolidine-3-carboxamide] | – | 55 nM | 199 nM | 102 nM | 16.3 nM | 868 nM | 255 nM | – | – | – | –
6 | CO[C@@H](C)c1ncc(N2CCN(C)CC2)cc1-c1c2c3cc(ccc3n1CC(F)(F)F)-c1csc(n1)C[C@H](NC(=O)[C@H](C(C)C)N1CC[C@]3(CCN(C(=O)[C@H](F)Cl)C3)C1=O)C(=O)N1CCC[C@H](N1)C(=O)OCC(C)(C)C2 [Example 23, (2S)-2-[(5S)-7-[(2R)-2-chloro-2-fluoro-acetyl]-1-oxo-2,7-diazaspiro[4.4]nonan-2-yl]-N-[(7S,13S)-(20M)-20-[2-[(1S)-1-methoxyethyl]-5-(4-methylpiperazin-1-yl)-3-pyridyl]-17,17-dimethyl-8,14-dioxo-21-(2,2,2-trifluoroethyl)-15-oxa-4-thia-9,21,27,28-tetrazapentacyclo[17.5.2.12,5.19,13.022,26]octacosa-1(25),2,5(28),19,22(26),23-hexaen-7-yl]-3-methyl-butanamide] | – | 2 nM | 18 nM | 8 nM | < 0.6 nM | 3410 nM | 15 nM | 7.9 mL/min/kg | medium (16.24<CL_hep (mL/min/kg)>6.96 is medium clearance) | 95% | stable (If % depletion after 6 hour incubation is less than 20%, compounds were reported as stable)
7 | C#CC1(F)CCN(C(=O)N(C)[C@H](C(=O)N[C@H]2Cc3cc(O)cc(c3)-c3ccc4c(c3)c(c(-c3cccnc3[C@H](C)OC)n4CC)CC(C)(C)COC(=O)[C@@H]3CCCN(N3)C2=O)C(C)C)CC1 (atropisomer, axis not shown; (M)) [Example 16, N-[(1S)-1-[[(8S,14S)-22-ethyl-4-hydroxy-(21M)-21-[2-[(1S)-1-methoxyethyl]-3-pyridyl]-18,18-dimethyl-9,15-dioxo-16-oxa-10,22,28-triazapentacyclo[18.5.2.12,6.110,14.023,27]nonacosa-1(26),2,4,6(29),20,23(27),24-heptaen-8-yl]carbamoyl]-2-methyl-propyl]-4-ethynyl-4-fluoro-N-methyl-piperidine-1-carboxamide] | – | 43 nM | 528 nM | 78 nM | 77 nM | 1170 nM | 294 nM | – | – | – | –
